Data: US20250145715A1, “B7-H3 TARGETING FUSION PROTEINS AND METHODS OF USE THEREOF” (GT Biopharma, Inc., priority 2021, published 2025)

Legend:
Format in all cases: cell-based, human
[1] = system: RPMI-8226 cells; assay: IncuCyte Zoom NK cell killing of RPMI-8226; conditions: E:T 4:1
Description: FIGS. 8A-8D illustrate the ability of peripheral blood NK cells with or without B7-H3-TriKE to kill myeloma cells in live imaging IncuCyte Zoom assays. FIG. 8A is a graph showing the effects with effector:target (E:T) ratios of 2:1 and 4:1 on H929 cells. FIG. 8B is a graph showing the effects with effector:target (E:T) ratios of 2:1 and 4:1 on MM1S cells. FIG. 8C is a graph showing the effects with effector:target (E:T) ratios of 2:1 and 4:1 on RPMI-8226 cells. FIG. 8D is a graph showing the effects with effector:target (E:T) ratios of 2:1 and 4:1 on U266 cells.
FIGS. 9A-9D illustrate the efficacy of B7-H3-TriKE with the proteasome inhibitor bortezomib (10 nM) and the immunomodulatory drug lenalidomide (5 μM). FIG. 9A is a graph showing the effect of the combination therapy on H929 cells after 48 hours. FIG. 9B is a graph showing the effect of the combination therapy on RPMI-8226 cells after 48 hours. FIG. 9C is a graph showing the effect of the combination therapy on MM1S cells after 48 hours. FIG. 9D is a graph showing the effect of the combination therapy on U266 cells after 48 hours.
The ability of peripheral blood NK cells with or without B7-H3-TriKE to kill myeloma cells was compared in live imaging IncuCyte Zoom assays with escalating doses of TriKE. Maximal killing occurred with 3 nM concentration.
The efficacy of B7-H3-TriKE with the proteasome inhibitor bortezomib (10 nM) and the immunomodulatory drug lenalidomide (5 μM) was also tested. Cytotoxicity curves were compared by repeated measures ANOVA and performed in triplicate.

[2] = system: H929 myeloma cells with MDSC; assay: Myeloma cytotoxicity assay with added MDSC, live cell imaging; conditions: B7-H3 TriKE and NK cells, 48 hours live cell imaging
Method: FIGS. 10A-10D illustrate the effect B7-H3-TriKE on MDSC developed from CD33+ myeloid cells from healthy donors, when incubated with myeloma cells at 1:100 ratio. FIG. 10A is a graph showing MDSC (CD14+CD11b+) expression of B7-H3. FIG. 10B is a graph showing cell survival as measured by flow cytometry. FIG. 10C is a plot of live, CD14+ cells FIG. 10D is a graph illustrating H929 growth as measured over 48 hours by live cell imaging.
MDSC were developed from CD33+ myeloid cells from healthy donors using IL-6 and GM-CSF or by incubating them with myeloma cells at 1:100 ratio for seven days.

[3] = system: NK cells (CD56+CD3−); assay: NK cell proliferation in PBMCs, CellTrace Violet dilution
Method: FIGS. 2A-2H illustrates that cam1615B7-H3 TriKE induces potent, and specific, natural killer (NK) cell proliferation. Peripheral blood mononuclear cells (PBMCs) were CellTrace Violet labeled and incubated for seven days at 5 nM equimolar concentrations of rhIL-15 or cam1615B7-H3 TriKE. On day 7, the cells were harvested and stained for flow cytometric evaluation. […] FIG. 2B is a graph illustrating pooled data showing the overall proportion of NK cells that proliferated. FIG. 2C is a graph illustrating pooled data showing the proportion of NK cells that highly proliferated (measured as proliferation beyond three divisions). FIG. 2D is a graph illustrating pooled data showing NK cell counts in the cultures (N=9). FIG. 2E is a representative histogram showing T cell (CD56− CD3+) proliferation. FIG. 2F is a graph illustrating pooled data showing the overall proportion of T cells proliferated. FIG. 2G is a graph illustrating pooled data showing the proportion of T cells highly proliferated. […]
The wild-type IL-15 moiety in the cam1615B7-H3 TriKE was designed to induce targeted delivery of a proliferative signal to NK cells. […] At the end of the seven days, cells were harvested and proliferation was evaluated by gating on CD56+CD3− cells. […] Since IL-15 acts on both NK cells and T cells, specificity was evaluated next by gating on T cells (CD56-CD3+). […]

## B7-H3 TriKE: camelid nanobodies targeting CD16 and B7-H3 joined by IL-15 and two linkers; sequence table equates the name with cam1615B7-H3
[1]
  NK cell killing of RPMI-8226: enhanced killing
[2]
  MDSC-enhanced myeloma cell growth: overcome

## cam1615B7-H3: second-generation TriKE: humanized camelid anti-CD16 VHH, human wild-type IL-15, anti-B7-H3 mAb 376.96 scFv; SEQ ID NO:1
[3]; PBMCs, 7 days, 5 nM equimolar
  overall NK cell proliferation: overall increase in proliferation that was similar in amplitude to that induced by rhIL-15
[3]; compared to IL-15 alone
  NK cell proliferation (3 or more rounds of division) vs IL-15 alone: more potent at inducing NK cell proliferation
